Assay [1] relates to muscular tinnitus (myognathic tinnitus). In words: Intravenous Caroverin in muscular (myognathic) tinnitus. It is filed as in vivo. Particulars: intravenous administration. The source says:
In addition, new trials by the inventor have shown that Caroverin is not indicated for the treatment of all forms of tinnitus. […] Muscular or myognathic tinnitus is identified by imparting an electrical charge to the chewing musculature, whereby the intensity and frequency of the symptoms of tinnitus can be altered. Myognathic tinnitus can substantially be caused to disappear when the tendon bundles of the middle ear musculature that operates the chain of auditory ossicles are surgically sectioned (tenotomy). The precise mechanism involved in this effect is still unclear.

Assay [2] deals with cochlear post-synaptic tinnitus. The note with it: infusion; according to EP 0 542 689; cited from earlier work.

Regarding `CCN(CC)CCn1c(=O)c(Cc2ccc(OC)cc2)nc2ccccc21` [Caroverin, 1-diethylaminoethyl-3-(p-methoxybenzyl)-1,2-dihydro-quinoxaline-2-one], the “response of muscular (myognathic) tinnitus” value in assay [1] was “not responsive”. Besides, the “treatability of cochlear post-synaptic tinnitus” value in assay [2] is recorded as “treatable”.

(Values after patent publication US20050288292A1, “Pharmaceutical formulation and its use in the treatment of inner ear diseases” (priority 2002, published 2005).)
